Laboratory results published in article PMC9948614, “Structural and functional properties of the Kunitz-type and C-terminal domains of Amblyomin-X supporting its antitumor activity” (Frontiers in Molecular Biosciences, 2023).
Like-named read-outs stand apart in the source and are kept apart here. No end group written: not given here.

How the values were obtained:
[1] = test system: SK-MEL-28; conditions: for Vesicles counts: SK-MEL-28, Alexa-Fluor 488-labeled molecule 20 µM, 37°C, ImageXpress Micro Confocal, mean ± SD of three independent experiments
Protocol: (§1) An additional step was carried out for the purification of peptides using FPLC. SK-MEL-28 and MIA PaCa-2 (10^5 cells/well) were seeded on sterile 35 mm culture dishes. First, a cell-based assay using fluorochrome conjugated molecules was carried by incubation with Amblyomin-X and its synthetic domains (20 µM) in a fresh medium at 37°C for 4 h and nuclei were stained with […] Syto59 (Invitrogen Life Technologies Inc., United States). Then red and green fluorescence were monitored by LSM 510 Meta confocal microscope (Zeiss, Jena, Germany). […] After treatment with synthetic fragments (all at 5 µM) in a fresh medium at 37°C for 4h, tumor cells were scanned on the x-, y-, and z-axes using a confocal microscope TCS SP8 (Leica Microsystems, GmbH Mannheim, DE) with 40x/1.1 objective lens and laser excitation at 405 and 488 nm with additional brightfield channel using the LAS X software (Leica Microsystems, GmbH Mannheim, DE). The images were deconvolved in Huygens Essential version 22.04 (Scientific Volume Imaging, Netherlands).
(§2) Following the same rationale, after treatment, cells were incubated with Alexa Fluor 555 TrF (100 μg/ml), Alexa Fluor 555 CTxB (50 μg/ml) or Alexa Fluor 555 dextran (1 mg/ml) in the binding medium at 37 °C for 20 min. Also, to evaluate cargo-delivery ability of C-ter, tumor cells were incubated with p15 (100 μM) or this molecule conjugate to C-ter (100 μM) for 4 h. […] Finally, evaluation of C-ter derived fragments (all at 10 μM) were investigated after 4 h of treatment.
(§3) In all 96 wells plate assays, nuclei were stained with Hoechst 33342 and fluorescence was monitored by a Molecular Devices ImageXpress Micro Confocal plate-scanning microscope (Molecular Devices, Sunnyvale, CA). Vesicles count were analyzed using MetaXpress software (Molecular Devices, CA) with Transfluor Application Module.

[2] = test system: SK-MEL-28; assay: MTT cell viability assay; conditions: 48 h
Protocol: (§4) Cell viability was measured by 3-(4,5-dimethylthiazol-2-yl)-2,5-diphenyltetrazolium bromide (MTT) assay, as described elsewhere ([Morais et al., 2016]). […] After 48h, 10% of 5 mg/ml MTT was added to the cells and the plates were incubated for 3 h at 37 °C. Afterward, the medium was discarded, the dark blue formazan crystalline product was dissolved in 100 µL dimethyl sulfoxide (DMSO), and the absorbance was measured in a Spectra MAX 190 microplate reader (Molecular Devices, Sunnyvale, United States) at 540 nm.
(§5) Amblyomin-X (50 μM) were used for comparative purpose. Besides, staurosporine (5 μM), MG-132 (3 μM) and bortezomib (80 nM) were used as a positive control.

[3] = test system: SK-MEL-28; assay: Microinjection assay, cell death by PI staining; type: cell-based, human; conditions: SK-MEL-28, microinjection of 488-labeled molecule, both 20 µM, 4 h; about 50 cells per condition
Protocol: SK-MEL-28 cells were plated on glass Cellocate coverslips for 24 h before injection. […] Staurosporine (10 µM) was added directly to the medium for 6 h and was used as a control for PI staining. Ctrl cells were maintained in a culture medium. The solution was injected into the cytoplasm an average of 50 cells for each condition (compensation pressure: 30 hPa; injection pressure: 100 hPa; injection time: 0.3 s). Immediately after injection, cells were replaced with fresh medium in the incubator at 37 °C. After 4 h, cells were stained with PI (1 μg/ml – contain RNAse A 100 ng/ml) for 15 min at r.t.. Then, cells were washed twice with 1X PBS and fixed with 4% paraformaldehyde for 15 min at r.t... Finally, cells were washed with 1X PBS and one drop of solution anti-fade mounting Vectashield® (Vecta Labs) was applied on the slide with the coverslip containing the cells facing down and, then, sealed. The analysis was performed in Leica SP8 confocal microscope (Leica, Germany): Green fluorescence was used to identify microinjected cells and red fluorescence to score cell death.

[4] = test system: SK-MEL-28; assay: Cellular uptake by confocal laser scanning microscopy; conditions: SK-MEL-28, Alexa Fluor 488-labeled molecule 20 µM, 4 h, 37°C
Protocol: as §1

[5] = test system: MIA PaCa-2; assay: MTT cell viability assay; type: cell-based, human; conditions: 48 h
Protocol: as §4, §5

[6] = target: T1, FXa (Homo sapiens, UniProt P00742); assay: FXa activity assay, chromogenic substrate S-2765; type: biochemical; conditions: FXa 40 nM, 30 min 37 °C, 20 mM Tris–HCl, PS/PC 2 µM, 5 mM CaCl2, pH 8.0, S-2765 200 µM, 405 nm
T1 construct: the active factor X (FXa)
T1 sequence (P00742 235-488 limits assumed): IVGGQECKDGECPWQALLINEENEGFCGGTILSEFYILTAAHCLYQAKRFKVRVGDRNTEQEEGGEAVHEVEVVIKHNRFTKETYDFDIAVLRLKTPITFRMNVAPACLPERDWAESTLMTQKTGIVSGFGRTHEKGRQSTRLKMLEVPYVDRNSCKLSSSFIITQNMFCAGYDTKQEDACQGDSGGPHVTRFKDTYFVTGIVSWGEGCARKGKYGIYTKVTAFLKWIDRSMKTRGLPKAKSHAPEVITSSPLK
T1 sequence (P00742 41-179 partner limits assumed): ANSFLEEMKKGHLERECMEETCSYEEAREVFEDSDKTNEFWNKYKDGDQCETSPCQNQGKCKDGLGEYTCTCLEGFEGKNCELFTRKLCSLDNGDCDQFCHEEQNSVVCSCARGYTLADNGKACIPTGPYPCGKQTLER
Protocol: Supplementary material 1 - FXa activity assays - FXa (40 nM) was incubated with varying concentrations of the Amblyomin-X recombinant protein and the synthetic domains for 30 min at 37 °C in 20 mM Tris–HCl containing PS/PC (2 µM) and 5 mM CaCl2, pH 8.0. Cleavage of the chromogenic substrate S-2765 (200µM, Chromogenix, UK) was monitored at 405 nm (SpectraMax 190, Molecular Devices, USA). The percentage of inhibition was determined from the residual activity of the enzymes as previously reported15, 16.

[7] = test system: MIA PaCa-2; conditions: MIA PaCa-2, Alexa-Fluor 488-labeled molecule 20 µM, 37°C, ImageXpress Micro Confocal, Transfluor module, mean ± SD of three independent experiments
Protocol: as §1, §2, §3

[8] = test system: dynein chains; assay: Gene expression of dynein chains by real-time PCR; type: cell-based, human
Protocol: Gene expression was evaluated via quantitative real-time polymerase chain reaction (qPCR) according to standard protocols previously reported by our group ([Pacheco et al., 2014]; [Morais et al., 2016]). Briefly, after cell treatment, the total RNA was extracted using the RNeasy kit (Qiagen, Netherlands) followed by DNase treatment, Then, cDNA strands were constructed using a SuperScript® III First-Strand Synthesis kit (InvitrogenTM, Life Technologies Inc., United States), according to manufacturer’s instructions. Finally, the samples were applied in a SYBR® green (Applied Biosystems, United States)-based reaction with specific and validated primers to evaluate mRNA levels of genes coding for dynein chains. RNA levels were normalized to glyceraldehyde 3-phosphate dehydrogenase (GAPDH) and quantified using the Livak 2^−ΔΔCT method ([Livak and Schmittgen, 2001]). The experiments were conducted by Step One Plus® PCR real-time system (Applied Biosystems, United States).

[9] = test system: SK-MEL-28; conditions: for Uptake of fluorescent (FITC) peptide by cells: SK-MEL-28, 5 or 10 µM, 6 h, ImageXpress Micro Confocal / confocal TCS SP8
Protocol: An additional step was carried out for the purification of peptides using FPLC. SK-MEL-28 and MIA PaCa-2 (10^5 cells/well) were seeded on sterile 35 mm culture dishes. […] […] The images were deconvolved in Huygens Essential version 22.04 (Scientific Volume Imaging, Netherlands).
Following the same rationale, after treatment, cells were incubated with Alexa Fluor 555 TrF (100 μg/ml), Alexa Fluor 555 CTxB (50 μg/ml) or Alexa Fluor 555 dextran (1 mg/ml) in the binding medium at 37 °C for 20 min. Also, to evaluate cargo-delivery ability of C-ter, tumor cells were incubated with p15 (100 μM) or this molecule conjugate to C-ter (100 μM) for 4 h. […]
as §3

[10] = SK-MEL-28, synthetic domains 0.2–100 μM
[11] = MIA PaCa-2, synthetic domains 0.2–100 μM
[12] = tumor cells, other fragments and TAT-Kunitz data not shown

For “ANSKAVCNLPKAGDETCSNKTEIRWYYNGTACEAFIFKGCGGNDNNFDRVDDCQRLC-NH2 (also: bicyclic or more (positions not given here)) [Kunitz]”, the “Number of vesicles relative to complete Amblyomin-X” value [1] was “ten-fold less”, the “Effect on cell viability (MTT)” value [2, 10] was “no alteration” and the “Propidium iodide (PI) staining after microinjection” value [3] was 26%. For the same substance, the “Uptake by cells (green fluorescence, confocal)” value [4] was “not detected inside the cells”, the “Effect on cell viability (MTT)” value [5, 11] was “no alteration” and the “Inhibitory activity against FXa” value [6] was “lower inhibitory activity against FXa than TFPI-K2”.

With “C^#WMSPRHLGT C^#EEQTHFHFESPKLISFKVQDYWILNDIMKKNLTGISLKSEEEDADSGEID (disulfide) [p15-C-ter, p15 peptide conjugated to the C-ter domain]” the “Internalization relative to the non-conjugated molecule (p15)” value [1] was “eight-fold more internalized”, the “Effect on cell viability (MTT)” value ([2]; SK-MEL-28, 100 μM) was “decreased cell viability” and the “Effect on cell viability (MTT)” value ([5]; MIA PaCa-2, 100 μM) was “decreased cell viability”.

“EEQTHFHFESPKLIFKVQDYWILNDIMKKNLTGISLKSEEEDADSGEID [C-ter]” was tested, and the Vesicles counts ([7]; 0.25 h) was 4.36 ± 2.03, the Vesicles counts ([7]; 0.5 h) was 17.50 ± 24.63 and the Vesicles counts ([7]; 1 h) was 10.59 ± 7.15. For the same substance, the Vesicles counts ([7]; 2 h) was 171.11 ± 248.57, the Vesicles counts ([7]; 4 h) was 802.63 ± 353.12 and the Vesicles counts ([1]; 0.25 h, MetaXpress Transfluor module) was 30.84 ± 17.2. The Vesicles counts ([1]; 0.5 h, Transfluor module) was 35.56 ± 21.09, the Vesicles counts ([1]; 1 h, Transfluor module) was 62.17 ± 11.20 and the Vesicles counts ([1]; 2 h, Transfluor module) was 558.48 ± 189.00. For the same substance, the Vesicles counts ([1]; 4 h, Transfluor module) was 1210.74 ± 379.14, the “Effect on cell viability (MTT)” value [2, 10] was “no alteration” and the “Uptake by cells (green fluorescence, confocal)” value [4] was “uptaken”. The “Gene expression of dynein chains” value [8, 12] was “modulated gene expression of dynein chains”, the “Effect on cell viability (MTT)” value [5, 11] was “no alteration” and the “Uptake of fluorescent (FITC) peptide by cells” value [9] was “uptaken”. The “Cells counts per well” value ([9]; SK-MEL-28, fluorescent peptides 10 µM, all treatments investigated) was “No alterations in cells counts”.

With FKVQDYWILNDIMKKNLTGI* [F2C] the “Gene expression of dynein chains” value ([8]; SK-MEL-28, 5 µM, 24 h, real-time PCR, normalized to GAPDH) was “modulate gene expression of all dynein chains evaluated”, the “Gene expression of dynein chains” value [8, 12] was “modulated gene expression of dynein chains” and the “Relative fluorescence units (RFU) compared with other peptides” value ([9]; SK-MEL-28, 10 µM, even in short times of treatment) was “higher values of relative fluorescence units (RFU)”. For the same substance, the “Uptake of fluorescent (FITC) peptide by cells” value [9] was “detected in the cell”.

With “GRKKRRQRRRPPQANSKAVCNLPKLAGDETCSNKTEIRWYYNGTACEAFIFKGCGGNDNNFDRVDDCQRLC-NH2 (also: bicyclic or more (positions not given here)) [TAT-Kunitz]” the “Cytotoxicity (MTT)” value ([2]; TAT-Kunitz at 20 and 50 μM, cell line not stated at the place (Figure 7B)) was “significant cytotoxicity activity”.
